According to patent publication US20080153758A1, “Compounds Which Inhibits Protein Prenylation E.G. Geranylgeransferse or Farnesyltransferase Inhibitors for Treating Parkinson's Disease” (priority 2004, published 2008):

Tests used:
FTase = FTase (Homo sapiens, UniProt P49354+P49356); details: read-out: FTase IC50; cited from earlier work
GGTase I = GGTase I (Homo sapiens, UniProt P49354+P53609); details: read-out: GGTase I / PGGTase-I IC50; cited from earlier work
[1] = cell-based assays (Law et al. 2000; Birkenkamp et al. 2004); cited from earlier work
mammary tumors = details: cited from earlier work
SH-SY5Y cells = assay: MTT cell viability of 6-OHDA treated SH-SY5Y cells; format: cell-based, human
Method: To test whether inhibition of Ras farnesylation could protect SH-SY5Y cells against 6-OHDA induced oxidative stress, a Ras farnesyltransferase inhibitor, L-744,832, was used in 6-OHDA treated SH-SY5Y cells.
SH-SY5Y cells were plated in 24 well plates (ATGC, France) at the initial density of 3*10^5 cells/well. After 24 hours, cells were pretreated with L-744,832 for 6 hours at concentrations ranging from 20 nM to 40 μM. Then, 6-OHDA (Sigma) diluted in PBS was added to the wells at the concentration of 50 μM. After 17 h incubation, an MTT assay was conducted to reveal cell viability, which was measured as normalized optical densities values (treated cells/untreated control cells), where a value of 1 represents 100% neuronal survival and a value of 0.6 represents 60% survival.

Structure (SMILES)	IC50 (FTase)	also measured
C[C@H]([C@H](C/C=C/c1nc2ccccc2o1)c1ccc2c(c1)OCO2)N(Cc1ccc2ccccc2c1)C(=O)[C@H]1OC(C(=O)O)(C(=O)O)O[C@@H]1C(=O)O [J-104,135]	3.9 nM	
CCC(C)C(COC(Cc1ccccc1)C(=O)NC(CCS(C)(=O)=O)C(=O)O)NCC(N)CS [L-739,750]	1.8 nM	
CSCCC(NC(=O)C(C=CC(C=CC(N)CS)C(C)C)Cc1ccccc1)C(=O)O (stereo not drawn) [B956]	11 nM	
O=[N+]([O-])[C@H]1C(c2ccccc2Br)CCN(Cc2cccnc2)[C@@H]1c1ccc(O)c(O)c1 (single isomer, unassigned; (+)) [(+)-4-(2-Bromophenyl)-2-(3,4-dihydroxyphenyl)-3-nitro-1-(3-pyridylmethyl)piperidine]	1.9 nM	
COC(=O)[C@H](CCSC)N(C(=O)c1ccccc1)C1CCN(C(=O)[C@@H](N)CS)CC1 [Methyl N-benzoyl-N-(piperidin-4-yl-N-(R)-cysteinyl)-(S) methioninate]	20 nM	
Cn1cncc1C(N)(c1ccc(Cl)cc1)c1ccc2c(c1)c(-c1cccc(Cl)c1)cc(=O)n2C (stereo not drawn) [R115777, 6-[Amino(4-chlorophenyl)-1-methyl-1H-imidazol-5-ylmethyl]-4-(3-chlorophenyl)-1-methyl-2(1H)-quinolinone]	0.86 nM	
CC(C)C[C@H](NC(=O)c1ccc(NC[C@@H](N)CS)cc1-c1ccccc1)C(=O)O [GGTI-287]		IC50 (GGTase I): 5 nM
CC(=O)N(c1ccc(C)cc1)c1ccc(NC(=O)CCCCc2ccccc2)cc1C(=O)c1ccccc1	390 nM	
CSCC[C@H](NC(=O)[C@@H](NC(=O)[C@@H](NC(=O)CCP(=O)(O)C/C=C(\C)CC/C=C(\C)CCC=C(C)C)C(C)C)C(C)C)C(=O)O [BMS-186511]	10 nM	
CSCC[C@H](NC(=O)c1ccc(NC[C@@H](N)CS)cc1)C(=O)O [FTI-249]	50 nM	
C[C@H]([C@H](C/C=C/c1nc2ccccc2o1)c1ccc2c(c1)OCO2)N(Cc1ccc2ccccc2c1)C(=O)[C@H]1OC(C(=O)O)(C(=O)O)O[C@@H]1C(=O)O [J-104,134]	5 nM	
CSCC[C@H](NC(=O)CN1C[C@H](N(C)C(=O)[C@H](N)CS)N=C(c2ccccc2)c2ccccc21)C(=O)O [BZA-2B]	0.85 nM	
CSCC[C@H](NC(=O)c1ccc(NC(=O)[C@@H](N)CS)cc1)C(=O)O [FTI-232, Cys-4-ABA-Met]	50 nM	
CSCC[C@@H](NC(=O)[C@H]1Cc2ccccc2CN1C(=O)[C@@H](NCCc1c[nH]cn1)C(C)C)C(=O)O (relative stereo) [BMS-193269, (R*)-N-[[1,2,3,4-Tetrahydro-2-[N-[2-(1H-imidazol-4-yl)ethyl]-L-valyl]-3-isoquinolinyl]carbonyl]-L-methionine]	0.79 nM	
CC[C@H](C)[C@@H](CO[C@@H](Cc1ccccc1)C(=O)N[C@@H](CCS(C)(=O)=O)C(=O)OC(C)C)NC[C@@H](N)CS [L-744,832, (2S)-2-[[(2S)-2-[[(2S,3S)-2-[[(2R)-2-Amino-3-mercaptopropyl]amino]-3-methylpentyl]oxy]-1-oxo-3-phenylpropyl]amino]-4-(methylsulfonyl)-butanoic acid 1-methylethyl ester]		reported active concentration [1]: 25 to 60 µM; p70s6k phosphorylation in mammary tumors (mammary tumors; in vivo): inhibits; tumor regression (mammary tumors; transgenic mice): induces tumor regression; toxicity for SH-SY5Y cells (SH-SY5Y cells; SH-SY5Y cells): non toxic; survival ratio (SH-SY5Y cells; SH-SY5Y, 6 h pretreatment with L-744,832 (20 nM to 40 μM), 6-OHDA 50 μM, 17 h, MTT, control 38%): 53%; protective effect against cell death induced by ROS (in words) (SH-SY5Y cells; overnight treatment with 6-OHDA, FIG. 1): significant protective effect; protective effect (SH-SY5Y cells; overnight treatment with 6-OHDA, SH-SY5Y, MTT): 24%
COC(=O)[C@H](CCSC)NC(=O)c1ccc(NC[C@@H](N)CS)cc1-c1ccccc1 [FTI-277]	100 nM	
C=C(CCC12OC(C(=O)O)C(O)(C(=O)O)C(C(=O)O)(O1)C(OC(=O)C=CC(C)CC(C)CC)C2O)C(OC(C)=O)C(C)Cc1ccccc1 [Zaragozic acid, L-erythro-L-Glycero-D-altro-7-trideculo-7,4-furanosonic acid, 2,7-anhydro-3,4-di-C-carboxy-8,9,10,12,13-pentadeoxy-10-methylene-12-(phenylmethyl)-,11-acetate 5-(4,6-dimethyl-2-octenoate), [5(2E,4S,6S),7S]]	50 nM	
CC(C)C[C@H](NC(=O)CN1C[C@H](N(C)C(=O)[C@H](N)CS)N=C(c2ccccc2)c2ccccc21)C(=O)O [BZA-4B]	1.3 nM	
